# Experiments:
# Npc1^−/− mice [1] = test: CatWalk automated gait analysis in Npc1−/− mice; format: in vivo, mouse; details: Npc1−/− mice, gait analysis at 10 weeks of age
# Procedure: (§1) BALBc/NPC ^h and Sandhoff mice were bred as heterozygotes to generate affected mice (Npc1^−/−, Hexb^−/−) and controls (Npc^+/+, Hexb^+/+). The mice were housed under non-sterile conditions, with food and water available ad libitum. All experiments were conducted using protocols approved by the UK Home Office Animal Scientific Procedures Act, 1986.
# (§2) ADLL and enantiomers (ADLL: Molekula #73891210, ALL: Sigma Aldrich #441511, ADL: Sigma #A0876) were administered as dry admix in powdered mouse diet (PicoLab Rodent Diet 20/5053, LabDiet) at a dose of 0.1 g/kg/day for in vivo studies. Treatment groups for in vivo study consisted of at least 5 mice per group. In vitro studies were conducted with each compound dissolved in PBS to generate a 50 mM stock solution and diluted to a 1 mM working concentration in media (DMEM High Glucose-Gibco #10566016).
# (§3) Miglustat (Monsanto/Oxford GlycoSciences) was administered as a dry solid mixed with powdered chow (600 mg/kg/day) (see above) alone or in combination with ADLL.
# (§4) The weight and activity of each mouse was recorded weekly until reaching the humane endpoint (defined as a loss of 1 g body weight within 24 h). Gait analysis was performed using CatWalk 10.5 system (Noldus) according to the manufacturer's instructions and five runs were recorded per animal at each time point. The camera was set to 40 cm below the walkway, the walkway was approximately 4 cm wide, and detection settings set to camera gain 14.05 and green intensity 0.12. Motor function was measured using an accelerating NG Rota Rod for mice (Ugo Basile) starting from 1 rpm to 10 rpm, accelerating every 30 seconds by one rpm. Bar crossing experiments on Sandhoff animals were conducted to measure motor strength and coordination. The apparatus used was modified from published studies. Briefly, a metal bar (1.2 mm width and 26 cm in length) was suspended horizontally between two wooden supports 30 cm high over a cushioned surface and animals were allowed to grasp the center of the bar with forepaws only, the tail was released, and the clock was started. Latency to cross or fall from the bar was scored, with 120 sec, maximum, to termination of each trial. A score was given to each animal between +120 and −120. If crossing time was greater than 0, then score=120−CT; if falling time was greater than 0, the score=FT−120.
# Npc1^−/− mice [2] = test: Survival / life span of Npc1−/− mice; format: in vivo, mouse; details: Npc1−/− mice; ADLL 0.1 g/kg/day, miglustat 600 mg/kg/day in chow; untreated Npc1−/− 87 days
# Procedure: as §1, §2, §3
# as §4, with “Briefly, a metal bar (1.2 mm width and 26 cm in length) was suspended horizontally between two wooden supports 30 cm high over a cushioned surface and animals were allowed to grasp the center of the bar with forepaws only, the tail was released, and the clock was started.” left out, “A score was given to each animal between +120 and −120. If crossing time was greater than 0, then score=120−CT; if falling time was greater than 0, the score=FT−120.” left out
# [3] = cited from earlier work
smiles,measurement,setting,value
"CCCCN1C[C@H](O)[C@@H](O)[C@H](O)[C@H]1CO [miglustat, 1,5-(butylimino)-1,5-dideoxy-D-glucitol]",Stand mean,Npc1^−/− mice [1],significantly improved
same,hind Duty Cycle percentages,Npc1^−/− mice [1],showed no benefit
same,median survival,Npc1^−/− mice [2],117 days
same,adverse effects in the treatment subjects,"[3]; NPC first-line therapy, Champion et al. 2010",causes unwanted weight loss and gastrointestinal disturbances
same,weight loss,"[3]; known effect, through appetite suppression",known to cause weight loss through appetite suppression
